From patent US20010047099A1, “4-aminopicolinates and their use as herbicides” (priority 2000, published 2001)
Read-outs that look alike come from different tables or passages of the source.

Legend:
[1] = system: cocklebur (Xanthium strumarium); assay: Preemergence herbicidal activity; assay type: in vivo; conditions: pre-emergence, 504 h
Method in brief: (§1)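 Visual injury score, 0-100 percent (0 = no injury, 100 = complete kill or no germination), taken 3 weeks after treatment relative to untreated plants. Test solutions in water/Tween 155 with acetone/DMSO carrier were sprayed onto the soil of freshly seeded pots. Greenhouse, 15 hr light.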

[2] = system: wild poinsettia (Euphorbia heterophylla); assay: Preemergence herbicidal activity; assay type: in vivo; conditions: pre-emergence, 504 h
Method in brief: as §1

[3] = system: barnyardgrass (Echinochloa crus-galli); assay: Preemergence herbicidal activity; assay type: in vivo; conditions: pre-emergence, 504 h
Method in brief: as §1

[4] = system: lambsquarters (Chenopodium album); assay: Preemergence herbicidal activity; assay type: in vivo; conditions: pre-emergence, 504 h
Method in brief: as §1

wild oats (Avena fatua) = assay: Preemergence herbicidal activity; assay type: in vivo; conditions: pre-emergence, 504 h
Method in brief: as §1

[5] = system: Canada thistle (Cirsium arvense); assay: Range & Pasture Crop Testing (postemergence track sprayer); assay type: in vivo; conditions: for GR80 CIRAR: Table 10, clover pasture, postemergence
Method in brief: (§2)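 Postemergence track-sprayer application at 187 L/ha, compounds formulated in 97:3 acetone:DMSO with 0.25% X-77, five rates (X serially diluted to 1/16×). Visual percent control (0–100 scale, burn down) rated 3 weeks after treatment; GR50/GR80 derived by probit analysis.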

[6] = system: field bindweed (Convolvulus arvensis); assay: as above; assay type: in vivo; conditions: for GR80 CONAR: Table 10, clover pasture, postemergence
Method in brief: as §2

[7] = Table 7, rate 35 g/Ha, after 3 weeks, read-out: PREEMERGENCE HERBICIDAL ACTIVITY % CONTROL XANST
[8] = Table 7, rate 35 g/Ha, after 3 weeks, read-out: PREEMERGENCE HERBICIDAL ACTIVITY % CONTROL EPHHL
[9] = Table 7, rate 35 g/Ha, after 3 weeks, read-out: PREEMERGENCE HERBICIDAL ACTIVITY % CONTROL ECHCG
[10] = Table 7, rate 35 g/Ha, after 3 weeks, read-out: PREEMERGENCE HERBICIDAL ACTIVITY % CONTROL CHEAL
[11] = Table 7, rate 35 g/Ha, after 3 weeks, read-out: PREEMERGENCE HERBICIDAL ACTIVITY % CONTROL AVEFA

| Structure (SMILES) | melting point | inhibition at 35 g/ha [1, 7] [%] | inhibition at 35 g/ha [2, 8] [%] | inhibition at 35 g/ha [3, 9] [%] | inhibition at 35 g/ha [4, 10] [%] | inhibition at 35 g/ha (wild oats (Avena fatua); [11]) [%] | GR80 CIRAR [5] [g/ha] | GR80 CONAR [6] [g/ha] | also measured |
| --- | --- | --- | --- | --- | --- | --- | --- | --- | --- |
| COc1c(C(=O)O)nc(Br)c(Cl)c1N [Compound 42, 4-Amino-6-bromo-5-chloro-3-methoxypyridine-2-carboxylic acid] | 154 to 156 °C | 98 | 40 | 30 | 90 | 30 |  |  |  |
| Nc1c(F)c(Cl)nc(C(=O)O)c1Cl [Compound 19, 4-Amino-3,6-dichloro-5-fluoropyridine-2-carboxylic acid] | 214 °C (dec.) |  |  |  |  |  |  |  |  |
| Nc1cc(Cl)nc(C(=O)O)c1Cl [Compound 1, 4-Amino-3,6-dichloropyridine-2-carboxylic acid] |  |  |  |  |  |  |  |  | inhibition at 35 g/ha ([1]; read-out: PR[…] % CONTROL XANST, Table 7, rate 35 g/Ha, after 3 weeks): 99%; inhibition at 35 g/ha ([2]; read-out: PR[…] % CONTROL EPHHL, Table 7, rate 35 g/Ha, after 3 weeks): 62%; inhibition at 35 g/ha ([3]; read-out: PR[…] % CONTROL ECHCG, Table 7, rate 35 g/Ha, after 3 weeks): 17%; inhibition at 35 g/ha ([4]; read-out: PR[…] % CONTROL CHEAL, Table 7, rate 35 g/Ha, after 3 weeks): 99%; inhibition at 35 g/ha (wild oats (Avena fatua); read-out: PR[…] % CONTROL AVEFA, Table 7, rate 35 g/Ha, after 3 weeks): 37%; Post-emergent GR80 CIRAR ([5]; Table 8, salts of Compound 1, 3 week evaluation): 47 g/Ha; Post-emergent GR80 CONAR ([6]; Table 8, salts of Compound 1, dose for 80 percent control): 59 g/Ha |

Second part, led by results:

| melting point | Structure (SMILES) | inhibition at 35 g/ha [1, 7] [%] | inhibition at 35 g/ha [2, 8] [%] | inhibition at 35 g/ha [3, 9] [%] | inhibition at 35 g/ha [4, 10] [%] | inhibition at 35 g/ha (wild oats (Avena fatua); [11]) [%] | GR80 CIRAR [5] [g/ha] | GR80 CONAR [6] [g/ha] | also measured |
| --- | --- | --- | --- | --- | --- | --- | --- | --- | --- |
| 182 to 183 °C | Nc1cc(Br)nc(C(=O)O)c1Cl [Compound 14, 4-Amino-6-bromo-3-chloropyridine-2-carboxylic acid] | 100 | 70 | 40 | 100 | 40 |  |  |  |
| 98 to 99 °C | CCOC(=O)c1nc(Cl)cc(N)c1Cl [Compound 4, ethyl 4-amino-3,6-dichloropyridine-2-carboxylate] |  |  |  |  |  | <17.5 | 59 |  |
| 134 to 135 °C | COC(=O)c1nc(Cl)cc(N)c1Cl [Compound 3, methyl 4-amino-3,6-dichloropyridine-2-carboxylate] | 90 | 20 | 20 | 100 | 10 | <17.5 | 127.7 | Post-emergent Evaluation - % control CIRAR ([5]; Table 9, rate 70 g/Ha, 3 weeks after treatment): 90% |
